In PubChem BioAssay (NCI):
Values joined by “and” are separate entries in the source; they are usually repeats but may differ in a detail not shown here. Identical values can stand only once.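 Growth conditions: 96-well plates. Treatment: test compound, 48 hours, 5 concentrations. Analysis: linear interpolation between bracketing concentrations; unreached endpoints set to highest concentration. GI50 = concentration required for 50% inhibition of growth. At the TGI there is no net growth.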

Columns and labels:
Experiment in all cases: DTP human tumour cell line panel, 48 h
[1] = system: MALME-3M melanoma
[2] = system: BT-549 breast
[3] = system: SK-OV-3 ovarian
[4] = system: PC-3 prostate
[5] = system: IGROV1 ovarian
[6] = system: CAKI-1 renal
[7] = system: SF-539 CNS
[8] = system: HOP-62 NSCLC
[9] = system: SF-268 CNS
[10] = system: A549 NSCLC

| Compound | GI50 [1] | TGI [1] | GI50 [2] | TGI [2] | GI50 [3] | TGI [3] | GI50 [4] | TGI [4] | GI50 [5] | TGI [5] | GI50 [6] | TGI [6] | GI50 [7] | TGI [7] | GI50 [8] | TGI [8] | GI50 [9] | TGI [9] | GI50 [10] | TGI [10] |
| --- | --- | --- | --- | --- | --- | --- | --- | --- | --- | --- | --- | --- | --- | --- | --- | --- | --- | --- | --- | --- |
| Cc1cc(-c2nc(C(=O)Nc3cc4oc(N5CCOCC5)nc4nc3N3CC[C@@H](O)C3)co2)ccn1 | 29.1 µM | > 100 µM | 33 µM | > 100 µM | 16.6 µM | 66.9 µM | 26.9 µM | > 100 µM | 12.7 µM | 72.7 µM | 17.1 µM | 71.6 µM | 24 µM | > 100 µM | 30.6 µM | > 100 µM | 61.7 µM | > 100 µM | 28.9 µM | > 100 µM |
| Cn1cc(C2=C(c3c4n(c5ccccc35)CCCCC4)C(=O)NC2=O)c2ccccc21 | > 11.5 µM | > 25 µM | > 11.7 µM | > 25 µM | 7.11 µM | > 25 µM | 3.2 µM | > 25 µM | 3.55 µM | > 25 µM | 2.53 µM | > 20.2 µM | 2.86 µM | 15.5 µM | > 12.5 µM | > 25 µM | 4.9 µM | > 25 µM | 3.72 µM | > 25 µM |
| O=C(Nc1ccccc1)c1c(O)[nH]c(=S)[nH]c1=O | 58.5 µM | 96.6 µM and > 250 µM | – | 72 µM | – | 122 µM | – | 85.2 µM | 45.9 µM | 97.1 µM and > 250 µM | 28 µM | 58.1 µM and 127 µM | 102 µM | 87.1 µM and > 250 µM | 73.2 µM | 82.5 µM and > 250 µM | – | 125 µM | 36.7 µM | 82.6 µM and 147 µM |
| COc1cccc(-c2cc(-c3cccc(NS(C)(=O)=O)c3)nc(N)c2C#N)c1O | 0.0465 µM | 93.4 µM | 0.716 µM | > 47.4 µM | 0.149 µM | > 100 µM | 0.111 µM | > 100 µM | 0.0577 µM | > 86.3 µM | 0.141 µM | 88.9 µM | 0.154 µM | > 100 µM | 0.135 µM | > 100 µM | 0.587 µM | > 100 µM | 0.293 µM | > 100 µM |
| Cc1cnc(NCCCN(C)C)c2c1[nH]c1ccc3cc(O)ccc3c12 | – | 2.2 µM | – | 3.12 µM | – | 2.75 µM | – | 2.21 µM | – | 4.6 µM | – | 4.18 µM | – | 1.64 µM | – | 1.86 µM | – | 2.07 µM | – | 2.5 µM |
| CCN(CC)N=Nc1c(C(N)=O)n[nH]c1C | – | > 100 µM | – | > 100 µM | – | 97.9 µM | – | > 100 µM | – | > 100 µM | – | > 100 µM | – | > 100 µM | – | > 100 µM | – | > 100 µM | – | > 100 µM |
| COc1cc2c(c(OC)c1OC)-c1ccc(NNC(N)=S)c(=O)cc1[C@@H](NC(C)=O)CC2 | 2.8 µM | > 100 µM | 0.37 µM | – | 0.817 µM | > 100 µM | 0.29 µM | > 100 µM | 1.18 µM | > 100 µM | 11.7 µM | > 100 µM | 0.338 µM | 4.31 µM | 0.739 µM | > 100 µM | 0.509 µM | > 100 µM | 3.12 µM | > 100 µM |
| Fc1[nH]nc2ccc([C@@H]3Nc4ccc5[nH]ncc5c4[C@H]4C5CCC(C5)[C@@H]34)cc12 (stereo not given in full) | 11.6 µM | 26 µM | 1.77 µM | 17.8 µM | 1.88 µM | 16.5 µM | 1.12 µM | 13.6 µM | 0.86 µM | 16 µM | 0.671 µM | 15 µM | 0.854 µM | 3.94 µM | 0.747 µM | 13.8 µM | 2.59 µM | 19.8 µM | 1.03 µM | 12.1 µM |
| CN1CCCCC1CCN1c2ccccc2Sc2ccc(Cl)cc21 (stereo not given) | 2.1 µM | 4.25 µM | 10.4 µM | 23.3 µM | 3.69 µM | 13.7 µM | 3.22 µM | 11.7 µM | 3.24 µM | 10.6 µM | 3.63 µM | 15.8 µM | 2.29 µM | 5.42 µM | 10.1 µM | 24.2 µM | 2.99 µM | 8.85 µM | 3.31 µM | 11.8 µM |
| COc1cccc(C2c3cc4c(cc3OC(C)(N3CCCC3)C2C)OCO4)c1O (stereo not given) | – | 42.3 µM | – | 48.2 µM | – | 38.4 µM | – | > 43.5 µM | – | > 70 µM | – | 28.7 µM | – | 21.8 µM | – | 31.6 µM | – | > 72.5 µM | – | 75 µM |
| Nc1c(C(=O)c2cccc(CCS(N)(=O)=O)c2)cnn1-c1ccc(F)cc1 | > 25 µM | > 25 µM | > 25 µM | > 25 µM | > 25 µM | > 25 µM | > 25 µM | > 25 µM | > 25 µM | > 25 µM | > 25 µM | > 25 µM | > 25 µM | > 25 µM | > 25 µM | > 25 µM | > 25 µM | > 25 µM | > 25 µM | > 25 µM |
| Cc1ccsc1C(=S)Nc1ccc(Cl)c(/C=N/OC(C)(C)C)c1 | – | > 100 µM | – | 59.8 µM | – | > 100 µM | – | > 100 µM | – | > 100 µM | – | > 100 µM | – | > 100 µM | – | > 100 µM | – | > 100 µM | – | > 100 µM |
| COC([CH2][Hg][n]1cnc2c1c(=O)n(C)c(=O)n2C)CN1C(=O)c2ccccc2S1(=O)=O (stereo not given) | > 100 µM | > 100 µM | > 100 µM | > 100 µM | > 100 µM | > 100 µM | > 100 µM | > 100 µM | > 100 µM | > 100 µM | > 100 µM | > 100 µM | > 100 µM | > 100 µM | > 100 µM | > 100 µM | > 100 µM | > 100 µM | > 100 µM | > 100 µM |
